For eight compounds, MIC and Activity results are on record in ChEMBL document CHEMBL4000224, “Cadiolides J-M, antibacterial polyphenyl butenolides from the Korean tunicate Pseudodistoma antinboja” (2017).

Values after ≈ are worked out from the molar mass of the structure shown. Active and inactive are the calls of the source. No cut-off for these calls is given here.

Assay type in all cases: functional
Assay [1] has as its system Staphylococcus aureus. In words: Anti-bacterial activity against methicillin-susceptible Staphylococcus aureus CCARM 0027 by 2-fold microtiter broth dilution method.
For assay [2], the system named is Staphylococcus aureus. In words: Anti-bacterial activity against methicillin-susceptible Staphylococcus aureus CCARM 0204 by 2-fold microtiter broth dilution method. A general note: Dilution methods test growth across graded concentrations, often in twofold steps.
Assay [3] has as its system Staphylococcus aureus. The assay is described as follows: Anti-bacterial activity against methicillin-susceptible Staphylococcus aureus CCARM 0205 by 2-fold microtiter broth dilution method.
For assay [4], the system named is Staphylococcus aureus. The assay is described as follows: Anti-bacterial activity against methicillin-susceptible Staphylococcus aureus CCARM 3640 by 2-fold microtiter broth dilution method.
Assay [5] concerns Staphylococcus aureus. In words: Anti-bacterial activity against methicillin-resistant Staphylococcus aureus CCARM 3089 by 2-fold microtiter broth dilution method.
Assay [6] deals with Staphylococcus aureus. In words: Anti-bacterial activity against methicillin-resistant Staphylococcus aureus CCARM 3090 by 2-fold microtiter broth dilution method.
Assay [7] relates to Staphylococcus aureus. In words: Anti-bacterial activity against methicillin-resistant Staphylococcus aureus CCARM 3634 by 2-fold microtiter broth dilution method.
For assay [8], the system named is Staphylococcus aureus. The assay is described as follows: Anti-bacterial activity against methicillin-resistant Staphylococcus aureus CCARM 3635 by 2-fold microtiter broth dilution method.
The subject of a further assay is Escherichia coli. In words: Anti-bacterial activity against Escherichia coli ATCC 11775 by 2-fold microtiter broth dilution method. The note with it: DSM 30083 = JCM 1649 = ATCC 11775.
A further assay deals with Salmonella typhimurium. The assay is described as follows: Anti-bacterial activity against Salmonella typhimurium ATCC 14028 by 2-fold microtiter broth dilution method. The note with it: Salmonella enterica subsp. enterica serovar Typhimurium.
In the next assay the test system is Klebsiella pneumoniae. In words: Anti-bacterial activity against Klebsiella pneumoniae ATCC 4352 by 2-fold microtiter broth dilution method.

Broadly, the MIC is the lowest concentration found to suppress growth. Read a high MIC as a less susceptible organism. As for `C[C@]12C[C@@]34C=CC(=O)[C@@](C)(CCC(=O)Nc5c(O)ccc(C(=O)O)c5O)[C@@H]3[C@H](C[C@@H]1C4)O2`, the MIC stood at 4 µg/mL (≈ 9.06 µM) in the assay on Staphylococcus aureus [1]; 4 µg/mL (≈ 9.06 µM) against Staphylococcus aureus [2]; 4 µg/mL (≈ 9.06 µM) against Staphylococcus aureus [3]; 8 µg/mL (≈ 18.1 µM) in the assay with Staphylococcus aureus [4]; 8 µg/mL (≈ 18.1 µM) in the assay with Staphylococcus aureus [5]; 8 µg/mL (≈ 18.1 µM) with Staphylococcus aureus [6]. For the same compound, the MIC in the assay with Staphylococcus aureus [7] and against Staphylococcus aureus [8] was 8 µg/mL (≈ 18.1 µM) each time.
`O=C1O/C(=C\c2cc(Br)c(O)c(Br)c2)C(c2cc(Br)c(O)c(Br)c2)=C1[C@@H](O)c1cc(Br)c(O)c(Br)c1`: the MIC with Staphylococcus aureus [1] was 2 µg/mL (≈ 2.28 µM); in the assay with Staphylococcus aureus [2], 1 µg/mL (≈ 1.14 µM); against Staphylococcus aureus [3], 1 µg/mL (≈ 1.14 µM); in the assay with Staphylococcus aureus [4], 1 µg/mL (≈ 1.14 µM); in the assay on Staphylococcus aureus [5], 1 µg/mL (≈ 1.14 µM); in the assay with Staphylococcus aureus [6] it was 1 µg/mL (≈ 1.14 µM). In addition, the MIC against Staphylococcus aureus [7] and against Staphylococcus aureus [8] was 1 µg/mL (≈ 1.14 µM) in each case. In addition, the result with Escherichia coli, in the assay with Salmonella typhimurium and in the assay with Klebsiella pneumoniae was inactive.
As to `COc1c(Br)cc([C@H](O)C2=C(c3ccc(O)c(Br)c3)/C(=C/c3cc(Br)c(O)c(Br)c3)OC2=O)cc1Br`, the minimum inhibitory concentration (MIC) was 4 µg/mL (≈ 4.93 µM) in the assay on Staphylococcus aureus [1]; 2 µg/mL (≈ 2.47 µM) in the assay on Staphylococcus aureus [2]; 2 µg/mL (≈ 2.47 µM) against Staphylococcus aureus [3]; 4 µg/mL (≈ 4.93 µM) with Staphylococcus aureus [4]; 4 µg/mL (≈ 4.93 µM) against Staphylococcus aureus [5]; 4 µg/mL (≈ 4.93 µM) in the assay with Staphylococcus aureus [6]. Moreover, the MIC against Staphylococcus aureus [7] and in the assay on Staphylococcus aureus [8] was 4 µg/mL (≈ 4.93 µM) throughout. The outcome with Escherichia coli, in the assay on Salmonella typhimurium and in the assay on Klebsiella pneumoniae was inactive.
As to `CN[C@H](CC(C)C)C(=O)N[C@H]1C(=O)N[C@@H](CC(N)=O)C(=O)N[C@H]2C(=O)N[C@H]3C(=O)N[C@H](C(=O)N[C@H](C(=O)O)c4cc(O)cc(O)c4-c4cc3ccc4O)[C@H](O)c3ccc(c(Cl)c3)Oc3cc2cc(c3O[C@@H]2O[C@H](CO)[C@@H](O)[C@H](O)[C@H]2O[C@H]2C[C@](C)(N)[C@H](O)[C@H](C)O2)Oc2ccc(cc2Cl)[C@H]1O` [VANCOMYCIN], the minimal inhibitory concentration (MIC) in the assay with Staphylococcus aureus [2] was 0.25 µg/mL (≈ 0.173 µM); in the assay with Staphylococcus aureus [3], below 0.13 µg/mL; in the assay on Staphylococcus aureus [4], 0.25 µg/mL (≈ 0.173 µM).
As to `COc1ccc(C=C2OC(=O)C([C@@H](O)c3cc(Br)c(OC)c(Br)c3)=C2c2cc(Br)c(O)c(Br)c2)cc1`, the MIC in the assay on Staphylococcus aureus [1] is 4 µg/mL (≈ 5.36 µM); against Staphylococcus aureus [2] it was 4 µg/mL (≈ 5.36 µM); against Staphylococcus aureus [3], 4 µg/mL (≈ 5.36 µM); against Staphylococcus aureus [4] it was 8 µg/mL (≈ 10.7 µM); in the assay with Staphylococcus aureus [5], 4 µg/mL (≈ 5.36 µM); in the assay with Staphylococcus aureus [6], 8 µg/mL (≈ 10.7 µM). The MIC in the assay with Staphylococcus aureus [7] and against Staphylococcus aureus [8] was 4 µg/mL (≈ 5.36 µM) each time. In addition, the outcome in the assay on Escherichia coli, in the assay on Salmonella typhimurium and with Klebsiella pneumoniae was inactive.
For `CCCCCCCCCC(=O)N[C@@H](Cc1c[nH]c2ccccc12)C(=O)N[C@@H](CC(N)=O)C(=O)N[C@@H](CC(=O)O)C(=O)N[C@@H]1C(=O)NCC(=O)N[C@@H](CCCN)C(=O)N[C@@H](CC(=O)O)C(=O)N[C@H](C)C(=O)N[C@@H](CC(=O)O)C(=O)NCC(=O)N[C@H](CO)C(=O)N[C@@H]([C@H](C)CC(=O)O)C(=O)N[C@@H](CC(=O)c2ccccc2N)C(=O)O[C@@H]1C` [DAPTOMYCIN], the MIC against Staphylococcus aureus [1] was 16 µg/mL (≈ 9.87 µM); against Staphylococcus aureus [2] it was 4 µg/mL (≈ 2.47 µM); against Staphylococcus aureus [3] it was 2 µg/mL (≈ 1.23 µM); against Staphylococcus aureus [4], 16 µg/mL (≈ 9.87 µM); against Staphylococcus aureus [5] it was above 32 µg/mL; against Staphylococcus aureus [6] it was above 32 µg/mL. For the same compound, the minimum inhibitory concentration (MIC) with Staphylococcus aureus [7] and against Staphylococcus aureus [8] was above 32 µg/mL each time.
For the compound `COc1ccc(C=C2OC(=O)C([C@@H](O)c3cc(Br)c(OC)c(Br)c3)=C2c2cc(Br)c(O)c(Br)c2)cc1Br`, the minimum inhibitory concentration (MIC) in the assay on Staphylococcus aureus [1] is 4 µg/mL (≈ 4.85 µM); in the assay on Staphylococcus aureus [2] it was 4 µg/mL (≈ 4.85 µM); in the assay on Staphylococcus aureus [3] it was 2 µg/mL (≈ 2.42 µM); with Staphylococcus aureus [4] it was 4 µg/mL (≈ 4.85 µM); with Staphylococcus aureus [5], 8 µg/mL (≈ 9.7 µM); against Staphylococcus aureus [6] it was 4 µg/mL (≈ 4.85 µM). Also, the minimum inhibitory concentration (MIC) against Staphylococcus aureus [7] and in the assay on Staphylococcus aureus [8] was 4 µg/mL (≈ 4.85 µM) throughout. Further, the result in the assay with Escherichia coli, with Salmonella typhimurium and in the assay on Klebsiella pneumoniae was inactive.
Take `COc1c(Br)cc([C@H](O)C2=C(c3cc(Br)c(O)c(Br)c3)/C(=C/c3ccc(O)c(Br)c3)OC2=O)cc1Br`: the MIC in the assay with Staphylococcus aureus [1] amounted to 1 µg/mL (≈ 1.23 µM); against Staphylococcus aureus [2], 1 µg/mL (≈ 1.23 µM); against Staphylococcus aureus [3], 0.5 µg/mL (≈ 0.617 µM); against Staphylococcus aureus [4], 1 µg/mL (≈ 1.23 µM); with Staphylococcus aureus [5], 2 µg/mL (≈ 2.47 µM); with Staphylococcus aureus [6], 2 µg/mL (≈ 2.47 µM). Moreover, the minimal inhibitory concentration (MIC) in the assay with Staphylococcus aureus [7] stood at 2 µg/mL (≈ 2.47 µM); against Staphylococcus aureus [8], 1 µg/mL (≈ 1.23 µM). In addition, the result with Escherichia coli, in the assay with Salmonella typhimurium and in the assay with Klebsiella pneumoniae was inactive.
